For 31 compounds, EC50 results are on record in US20240124466A1, “COMPOUNDS AND USE THEREOF FOR TREATMENT OF NEURODEGENERATIVE, DEGENERATIVE AND METABOLIC DISORDERS” (VOVA IDA THERAPEUTICS, INC., priority 2020, published 2024).

The subject of this test is PK1 neuroblastoma cells exposed to TPrP. The test is described as follows: cells. The settings on record: Neuroblastoma cell, 96 h, read-out: TPrP EC50.
Usually EC50 stands for the concentration that produces a half-maximal response. On to `C=CCN1C[C@H](C)N(S(=O)(=O)c2cc(-c3ccnc(Cl)c3)ccc2C)C[C@H]1C` (relative stereo) [SR-35465, (trans)-1-allyl-4-((5-(2-chloropyridin-4-yl)-2-methylphenyl)sulfonyl)-2,5-dimethylpiperazine], for which the EC50 was greater than 1500 nM.

For the compound `Cc1ccc(-c2cnn(C)c2)cc1S(=O)(=O)N1CCOCC1` [SR-24578], the EC50 was found to be 100 nM.

As for `Cc1ccc(-c2cnn(CCN3CCOCC3)c2)cc1S(=O)(=O)N1CCOCC1` [SR-24581], the EC50 is 100 nM.

For `Cc1ccc(-c2ccncc2)cc1S(=O)(=O)N1CCOCC1` [SR-24583], the EC50 came to 100 nM.

On to `CC(=O)NCCNc1cc(-c2ccc(C)c(S(=O)(=O)N3CCOCC3)c2)ccn1` [SR-25104, N-(2-((4-(4-methyl-3-(morpholinosulfonyl)phenyl)pyridin-2-yl)amino)ethyl) acetamide], for which the EC50 was 100 nM.

As to `CC(=O)N(C)CCN(C)c1cc(-c2ccc(C)c(S(=O)(=O)N3CCOCC3)c2)ccn1` [SR-25124, N-methyl-N-(2-(methyl(4-(4-methyl-3-(morpholinosulfonyl)phenyl)pyridin-2-yl)amino)ethyl)acetamide], the EC50 is 240 nM.

Regarding `Cc1ccc(NCc2ccncc2)cc1S(=O)(=O)N1CCOCC1` [SR-25464, 4-Methyl-3-(morpholinosulfonyl)-N-(pyridin-4-ylmethyl)aniline], the 50% effective concentration (EC50) is greater than 320 nM.

As to `CC(=O)N1CCN(CCn2cc(-c3ccc(C)c(S(=O)(=O)N4CCOCC4)c3)cn2)CC1` [SR-25484, 1-(4-(2-(4-(4-Methyl-3-(morpholinosulfonyl)phenyl)-1H-pyrazol-1-yl)ethyl)piperazin-1-yl)ethan-1-one], the EC50 was determined as 140 nM.

Turning to `Cc1ccc(-c2c(C)nn(C)c2C)cc1S(=O)(=O)N1CCOCC1` [SR-25584, 4-((2-Methyl-5-(1,3,5-trimethyl-1H-pyrazol-4-yl)phenyl)sulfonyl)morpholine], the EC50 was greater than 320 nM.

On to `Cc1ccc(-c2n[nH]c(-c3ccccc3)n2)cc1S(=O)(=O)N1CCOCC1` [SR-25604-2], for which the EC50 amounted to 40 nM.

Regarding `CC(=O)NC1CCN(CCn2cc(-c3ccc(C)c(S(=O)(=O)N4CCOCC4)c3)cn2)CC1` [SR-25864, N-(1-(2-(4-(4-methyl-3-(morpholinosulfonyl)phenyl)-1H-pyrazol-1-yl)ethyl)piperidin-4-yl)acetamide], the EC50 was 120 nM.

For the compound `O=S(=O)(c1ccc(-c2nnc(-c3ccccc3)[nH]2)cc1Cl)N1CCOCC1` [SR-26324, 4-((2-Chloro-4-(5-phenyl-4H-1,2,4-triazol-3-yl)phenyl)sulfonyl)morpholine], the EC50 is greater than 320 nM.

As to `Cc1ccc(-c2nnc(C)c3ccccc23)cc1S(=O)(=O)N1CCOCC1` [SR-26424, 4-((2-Methyl-5-(4-methylphthalazin-1-yl)phenyl)sulfonyl)morpholine], the EC50 was greater than 320 nM.

For the compound `O=S(=O)(c1ccc(-c2nnc(-c3ccccc3)[nH]2)cc1C(F)(F)F)N1CCOCC1` [SR-26444, 4-((4-(5-Phenyl-4H-1,2,4-triazol-3-yl)-2-(trifluoromethyl)phenyl)sulfonyl) morpholine], the EC50 is greater than 320 nM.

As for `Cc1ccc(-c2nc3ccccn3n2)cc1S(=O)(=O)N1CCOCC1` [SR-26524, 4-((5-([1,2,4]Triazolo[1,5-a]pyridin-2-yl)-2-methylphenyl)sulfonyl) morpholine], the EC50 was 50 nM.

As to `O=S(=O)(c1cc(-c2nnc(-c3ccccc3)[nH]2)ccc1Cl)N1CCOCC1` [SR-26525, 4-((2-Chloro-5-(5-phenyl-4H-1,2,4-triazol-3-yl)phenyl)sulfonyl)morpholine], the EC50 worked out at 100 nM.

Turning to `COc1ccc(-c2nnc(-c3ccccc3)[nH]2)cc1S(=O)(=O)N1CCOCC1` [SR-26624, 4-((2-Methoxy-5-(5-phenyl-4H-1,2,4-triazol-3-yl)phenyl)sulfonyl) morpholine], the concentration for a half-maximal effect (EC50) is 260 nM.

With `Cc1ccc(-c2cnc3ccccn23)cc1S(=O)(=O)N1CCOCC1` [SR-27444, 4-((5-(Imidazo[1,2-a]pyridin-3-yl)-2-methylphenyl)sulfonyl)morpholine], the EC50 was greater than 320 nM.

With `Cc1ccc(-c2cccc3[nH]ncc23)cc1S(=O)(=O)N1CCOCC1` [SR-27484, 4-((5-(1H-Indazol-4-yl)-2-methylphenyl)sulfonyl)morpholine], the 50% effective concentration (EC50) is greater than 320 nM.

On to `N#Cc1ccc(-c2nnc(-c3ccccc3)[nH]2)cc1S(=O)(=O)N1CCOCC1` [SR-27504, 2-(Morpholinosulfonyl)-4-(5-phenyl-4H-1,2,4-triazol-3-yl)benzonitrile], for which the EC50 was greater than 320 nM.

For `Cc1ccc(-c2nnc(-c3ccccc3)s2)cc1S(=O)(=O)N1CCOCC1` [SR-27524, 4-((2-Methyl-5-(5-phenyl-1,3,4-thiadiazol-2-yl)phenyl)sulfonyl)morpholine], the EC50 worked out at 180 nM.

Turning to `Cc1ccc(-c2nnc(-c3ccccc3)o2)cc1S(=O)(=O)N1CCOCC1` [SR-27558, 4-((2-Methyl-5-(5-phenyl-1,3,4-oxadiazol-2-yl)phenyl)sulfonyl)morpholine], the EC50 was found to be 140 nM.

With `Cc1ccc(-c2n[nH]c3ccccc23)cc1S(=O)(=O)N1CCOCC1` [SR-27564, 4-((5-(1H-Indazol-3-yl)-2-methylphenyl)sulfonyl)morpholine], the EC50 is 135 nM.

As for `Cc1ccc(-c2nnc(-c3ccc(F)cc3)[nH]2)cc1S(=O)(=O)N1CCOCC1` [SR-27964, 4-((5-(5-(4-Fluorophenyl)-4H-1,2,4-triazol-3-yl)-2-methylphenyl)sulfonyl) morpholine], the half-maximal effective concentration (EC50) is 40 nM.

Consider `Cc1ccc(-c2nnc(-c3ccc(F)c(F)c3)[nH]2)cc1S(=O)(=O)N1CCOCC1` [SR-27984, 4-((5-(5-(3,4-Difluorophenyl)-4H-1,2,4-triazol-3-yl)-2-methylphenyl)sulfonyl) morpholine], for which the EC50 was 20 nM.

As for `O=S(=O)(c1cc(-c2nnc(-c3ccccc3)[nH]2)ccn1)N1CCOCC1` [SR-28004, 4-((4-(5-Phenyl-4H-1,2,4-triazol-3-yl)pyridin-2-yl)sulfonyl)morpholine], the EC50 was greater than 1200 nM.

Regarding `COc1ccc(-c2nnc(-c3ccc(C)c(S(=O)(=O)N4CCOCC4)c3)[nH]2)cc1` [SR-28104, 4-((5-(5-(4-Methoxyphenyl)-4H-1,2,4-triazol-3-yl)-2-methylphenyl)sulfonyl) morpholine], the EC50 was determined as 15 nM.

In the case of `O=S(=O)(c1cc(-c2nnc(-c3ccccc3)[nH]2)ccc1C(F)(F)F)N1CCOCC1` [SR-28125, 4-((5-(5-Phenyl-4H-1,2,4-triazol-3-yl)-2-(trifluoromethyl)phenyl)sulfonyl) morpholine], the EC50 was 30 nM.

On to `Cc1ccc(-c2nnc(-c3ccc(Br)cc3)[nH]2)cc1S(=O)(=O)N1CCOCC1` [SR-28144, 4-((5-(5-(4-Bromophenyl)-4H-1,2,4-triazol-3-yl)-2-methylphenyl)sulfonyl) morpholine], for which the EC50 turned out to be 40 nM.

Consider `Cc1ccc(-c2nnc(-c3ccncc3)[nH]2)cc1S(=O)(=O)N1CCOCC1` [SR-28224, 4-((2-Methyl-5-(5-(pyridin-4-yl)-4H-1,2,4-triazol-3-yl)phenyl)sulfonyl) morpholine], for which the EC50 is 18 nM.

`Cc1ccc(-c2nnc(C3CCCCC3)[nH]2)cc1S(=O)(=O)N1CCOCC1` [SR-28565, 4-((5-(5-Cyclohexyl-4H-1,2,4-triazol-3-yl)-2-methylphenyl)sulfonyl)morpholine]: the EC50 is 150 nM.
